From US12122780B2, “Pyrimidinyl group-containing tricyclic compound serving as c-Met inhibitor” (JIANGSU AOSAIKANG PHARMACEUTICAL CO., LTD., priority 2019, dated 2024)
pIC50: −log10 of the molar value. Structures can show the parent of a compound that is named as a salt.

Columns and labels:
[1] = Pharmacokinetics of single intravenous and oral administration in dogs; type: in vivo; details: for Vd / clearance / half-life / bioavailability: dog, plasma; for Vd / clearance / half-life / Exposure AUC: intravenous injection, 1 mg/kg; for Vd: read-out: Apparent volume of distribution; for clearance: read-out: Clearance rate; for half-life: read-out: Half-life (T1/2) (converted); for bioavailability / Exposure AUC0-last / Maximum blood concentration / Peak time: oral administration, 5 mg/kg
Procedure: (§1) The objective of this experiment was to study the pharmacokinetics (PK) of the test compound in different species after a single intravenous and a single oral administration.
(§2) After intravenous injection or oral administration, animal blood samples were collected and the actual blood collection time was recorded. Immediately after collection, blood samples were transferred to labeled centrifuge tubes containing K2-EDTA and subsequently centrifuged and processed to obtain plasma. Plasma was transferred to pre-cooled centrifuge tubes, snap-frozen in dry ice and stored in an ultra-low temperature refrigerator at −70±10° C. until LC-MS was performed.
(§3) Plasma drug concentration data of the compounds were processed using pharmacokinetic software with a non-compartmental model. The peak concentration (Cmax) and time to peak (Tmax), as well as the quantifiable end time, were obtained directly from the blood concentration-time diagram. The log-linear trapezoidal method was used to calculate the following pharmacokinetic parameters: half-life (T1/2), apparent volume of distribution (Vdss) and clearance rate (Cl), and the area under the time-plasma concentration curve from 0 points to the end time (AUC0-last), the initial concentration (C0).

[2] = biological target: c-Met enzyme (Homo sapiens (Human), UniProt P08581); assay: c-Met enzyme activity inhibition (Promega c-Met Kinase Enzyme System, ADP-Glo); type: biochemical; details: 10 μM ATP, 60 min, 30° C.
Chain of c-Met enzyme (P08581 956-1390): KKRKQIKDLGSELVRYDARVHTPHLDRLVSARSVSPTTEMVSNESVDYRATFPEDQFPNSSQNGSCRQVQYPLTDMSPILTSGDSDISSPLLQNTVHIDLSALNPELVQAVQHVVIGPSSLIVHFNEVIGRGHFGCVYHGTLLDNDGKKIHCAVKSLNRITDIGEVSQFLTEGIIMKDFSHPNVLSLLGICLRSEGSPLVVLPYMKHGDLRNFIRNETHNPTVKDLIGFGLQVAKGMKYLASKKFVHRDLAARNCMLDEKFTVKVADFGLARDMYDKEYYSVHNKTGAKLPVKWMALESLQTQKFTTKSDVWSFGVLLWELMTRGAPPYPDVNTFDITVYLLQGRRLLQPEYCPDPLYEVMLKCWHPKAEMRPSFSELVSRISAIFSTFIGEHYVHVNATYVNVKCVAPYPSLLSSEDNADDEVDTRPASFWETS
Procedure: To detect the inhibitory effect of the compounds on c-Met enzyme activity.
The c-Met Kinase Enzyme System was purchased from Promega. Envision multi-label analyzer (PerkinElmer).
The kinase buffer in the kit was used to dilute the enzyme, substrate, ATP and inhibitor.
The compound to be tested was diluted 5-fold to the eighth concentration with a discharge gun, i.e., from 50 μM to […], with a final DMSO concentration of 5%, and double duplicate wells experiment was set. 1 μL of each concentration gradient of the inhibitor, 2 μL of c-Met enzyme (4 ng), 2 μL of a mixture of the substrate and ATP (10 μM ATP, 0.2 μg/μL poly E4Y1) were added to the microplate, and the final concentration gradient of the compound of 10 μM was diluted to 0.13 nM. The reaction system was placed at 30° C. and the reaction was carried out for 60 minutes. When the reaction was completed, 5 μL of ADP-Glo reagent was added to each well and the reaction was carried out at 30° C. for another 40 minutes, when the reaction was completed, 10 μL of kinase detection reagent was added to each well, then the reaction was carried out at 30° C. for still another 30 minutes, chemiluminescence was read by the PerkinElmer Envision multi-label analyzer with an integration time of 0.5 seconds.
Using the equation (Sample-Min)/(Max-Min)*100% to convert the original data to the inhibition rate, the IC50 value can be obtained by curve fitting with four parameters (obtained by log(inhibitor) vs. response in GraphPad Prism—Variable slope mode).

[3] = test system: human gastric cancer Hs746T xenograft tumor; assay: In vivo drug efficacy, human gastric cancer Hs746T xenograft tumor in nude mice; parameters: species or system BALB/c nude mice; details: for TGI (tumor growth inhibition rate) / TRTV/CRTV (relative tumor proliferation rate T/C): after 20 days; for Tumor volume: n = 6
Procedure: BALB/c nude mice, female, 6-8 weeks old, weighing about 18-22 grams, animals were raised in SPF-class animal rooms in IVC (independent air supply system, constant temperature and humidity) cages (3 per cage). All cages, bedding and water were disinfected before use. All animals had free access to standard certified commercial laboratory diets. 0.2 mL (5×10^6 cells) of Hs746T cell suspension (with matrix gel, volume ratio 1:1) was subcutaneously inoculated on the right back of each mouse, and a total of 55 mice were inoculated. When the average tumor volume reached 160 mm^3, a random stratified grouping method was adopted according to the tumor volume and animal body weight to start grouping administration. The test compound was orally administered daily, the two doses of hydrochloride of compound 25 were 3 mg/kg and 6 mg/kg, respectively, and the dose of hydrochloride of compound 39 was 3 mg/kg. The tumor diameter was measured with vernier calipers twice a week. The calculation formula of tumor volume was: V=0.5a×b^2, a and b represented the long diameter and short diameter of the tumor, respectively. The anti-tumor efficacy of the compound was evaluated by TGI (%) or the relative tumor proliferation rate T/C (%). Relative tumor proliferation rate T/C (%)=TRTV/CRTV×100% (TRTV: average RTV in the treatment group; CRTV: average RTV in the negative control group). The relative tumor volume (RTV) was calculated according to the results of tumor measurement, the calculation formula was RTV=Vt/V0, wherein V0 was the tumor volume measured at the time of the grouping administration (i.e. D0), Vt was the tumor volume of the mice at a certain measurement, and TRTV and CRTV were taken on the same day. TGI (%) reflected the tumor growth inhibition rate. TGI (%)=[(1−(average tumor volume of a certain treatment group after administration-average tumor volume of the treatment group at the beginning of administration))/(average tumor volume of the solvent control group after the administration-average tumor volume of the solvent control group at the beginning of the administration)]×100%. Statistical analysis was performed based on the tumor volume (RTV) on the 20th day, and SPSS software was used for analysis.

[4] = Pharmacokinetics of single intravenous and oral administration in mice; type: in vivo; details: for Exposure AUC / Vd / clearance / half-life: intravenous injection, 1 mg/kg; for Vd / clearance / half-life / bioavailability: mouse, plasma; for Vd: read-out: Apparent volume of distribution; for clearance: read-out: Clearance rate; for half-life: read-out: Half-life (T1/2) (converted); for bioavailability / Exposure AUC0-last / Maximum blood concentration / Peak time: oral administration, 10 mg/kg
Procedure: as §1, §2, §3

[5] = 3 mg/kg oral daily, day 0, mean ± standard error
[6] = 3 mg/kg oral daily, day 2, mean ± standard error
[7] = 3 mg/kg oral daily, day 5, mean ± standard error
[8] = 3 mg/kg oral daily, day 9, mean ± standard error
[9] = 3 mg/kg oral daily, day 12, mean ± standard error
[10] = 3 mg/kg oral daily, day 16, mean ± standard error
[11] = 3 mg/kg oral daily, day 19, mean ± standard error
[12] = 3 mg/kg oral daily, day 20, mean ± standard error

| Vd [1] [L/kg] | clearance [1] [mL/min/kg] | half-life [1] [h] | bioavailability [1] [%] | Exposure AUC [1] [µM·h] | Exposure AUC0-last [1] [µM·h] | Maximum blood concentration [1] [nM] | Peak time [1] [h] | pIC50 [2] | Exposure AUC [4] [µM·h] | SMILES | TGI (tumor growth inhibition rate) ([3]; 3 mg/kg oral daily) [%] | TRTV/CRTV (relative tumor proliferation rate T/C) ([3]; 3 mg/kg oral daily) [%] | Tumor volume [3, 5] [mm^3] | Tumor volume [3, 6] [mm^3] | Tumor volume [3, 7] [mm^3] | Tumor volume [3, 8] [mm^3] | Tumor volume [3, 9] [mm^3] | Tumor volume [3, 10] [mm^3] | Tumor volume [3, 11] [mm^3] | Tumor volume [3, 12] [mm^3] | other results |
| --- | --- | --- | --- | --- | --- | --- | --- | --- | --- | --- | --- | --- | --- | --- | --- | --- | --- | --- | --- | --- | --- |
| 14.4 | 24.2 | 7.87 | 57.7 | 1.23 | 3.54 | 246 | 4 | 8.56 | 2.08 | CC(C)N1CCC(COc2cnc(-c3cccc(Cn4c(=O)ccn5c6cc(C#N)ccc6nc45)c3)nc2)CC1 [Hydrochloride of compound 25] | 96.6 | 10.2 | 160 ± 7 | 179 ± 8 | 173 ± 12 | 151 ± 7 | 144 ± 6 | 139 ± 20 | 221 ± 49 | 234 ± 79 | Tumor volume ([3]; 3 mg/kg oral daily, day 20, mean ± standard error, listed as hydrochloride of compound 25): 234 mm^3; TGI (tumor growth inhibition rate) ([3]; 6 mg/kg oral daily): 106.7%; TRTV/CRTV (relative tumor proliferation rate T/C) ([3]; 6 mg/kg oral daily): 0.7%; Tumor volume ([3]; 6 mg/kg oral daily, day 0, mean ± standard error): 160 ± 7 mm^3; Tumor volume ([3]; 6 mg/kg oral daily, day 2, mean ± standard error): 146 ± 6 mm^3; Tumor volume ([3]; 6 mg/kg oral daily, day 5, mean ± standard error): 118 ± 6 mm^3; Tumor volume ([3]; 6 mg/kg oral daily, day 9, mean ± standard error): 89 ± 9 mm^3; Tumor volume ([3]; 6 mg/kg oral daily, day 12, mean ± standard error): 83 ± 9 mm^3; Tumor volume ([3]; 6 mg/kg oral daily, day 16, mean ± standard error): 55 ± 6 mm^3; Tumor volume ([3]; 6 mg/kg oral daily, day 19, mean ± standard error): 30 ± 4 mm^3; Tumor volume ([3]; 6 mg/kg oral daily, day 20, mean ± standard error): 17 ± 4 mm^3; Tumor volume ([3]; 6 mg/kg oral daily, day 20, mean ± standard error, listed as hydrochloride of compound 25): 17 mm^3; Vd [4]: 5.41 L/kg; clearance [4]: 14.7 mL/min/kg; half-life [4]: 4.51 h; bioavailability [4]: 27%; Exposure AUC0-last [4]: 5.56 µM·h; Maximum blood concentration [4]: 541 nmol; Peak time [4]: 2.33 h |
| 14.6 | 18.7 | 9.47 | 70.6 | 1.34 | 4.74 | 451 | 5 | 8.26 | 1.8 | CC(C)(O)CN1CCC(COc2cnc(-c3cccc(Cn4c(=O)ccn5c6cc(C#N)ccc6nc45)c3)nc2)CC1 [Hydrochloride of compound 39] | 106.7 | 0.7 | 160 ± 6 | 159 ± 8 | 125 ± 4 | 92 ± 3 | 82 ± 5 | 59 ± 7 | 26 ± 4 | 16 ± 3 | Tumor volume ([3]; 3 mg/kg oral daily, day 20, mean ± standard error, listed as hydrochloride of compound 39): 16 mm^3; Vd [4]: 7.27 L/kg; clearance [4]: 15.8 mL/min/kg; half-life [4]: 6.73 h; bioavailability [4]: 82.3%; Exposure AUC0-last [4]: 14.9 µM·h; Maximum blood concentration [4]: 1070 nmol; Peak time [4]: 4 h |
